In patent publication US11441181B2, “miRNA-124 as a biomarker” (priority 2013, dated 2022):

Columns and labels:
ADA-M R5 HIV = test: Treatment of PBMCs infected with ADA-M R5 HIV strain; format: cell-based
Method: For that purpose, peripheral blood mononuclear cells (PBMCs) of five healthy donors have been isolated by centrifugation on a FICOLL gradient. The cells have then been cultivated at 37° C., 5% CO2 to a density of 1×10^6 cells/mL in RPMI Glutamax medium (Life Technologies Ref 61870-010) supplemented with 10% fetal calf serum (FCS) (Thermo Fischer Ref SV30160.03) 1000 U/mL of IL2 (Peprotech Ref 200-02) and […] of PHA (Roche ref 1249738). Three days later, cells have been pooled and resuspended to a density of 1×10^6 cells/mL in RPMI Glutamax medium supplemented with 10% fetal calf serum (FCS) 1000 U/mL of IL-2 and distributed in 12 wells plates (Falcon Ref 353043) with 1.2 mL/well (4 wells per condition).
HIV-1 infection has been performed with 1 ng of Ada-M R5 HIV strain/well. Cells were treated for 6 days with 1.2 mL/well of 60 μM solution of 8-chloro-N-[4-(trifluoromethoxy)phenyl]quinolin-2-amine or with 0.12% DMSO (Sigma Ref D4818 as negative control).

[1] = system: HIV-1 and HIV-2 T cell-tropic laboratory strains as well as clinical isolates of different subtypes; settings: HIV-1 and HIV-2 laboratory strains and clinical isolates; cited from earlier work

FC(F)(F)Oc1ccc(Nc2ccc3cccc(Cl)c3n2)cc1 [8-chloro-N-[4-(trifluoromethoxy)phenyl]quinolin-2-amine]
effect on viruses in infected PBMCs (ADA-M R5 HIV): removal of the viruses
inhibition of replication in PBMC, active concentrations [1]: nM concentrations range
